From patent US11213579B2, “Vaccines with enhanced immunogenicity, low allergenicity and reactogenicity” (priority 2018, dated 2022)

Test system: P. aeruginosa 6616
Experiment: Photodynamic inactivation of Pseudomonas aeruginosa, re-seeding on MHA to control inactivation
Format: cell-based
Conditions: initial dose 10 lg CFU/ml, 5 min, 500 μV/ml
[1] = photosensitizer 1 nM/L, 320 nm for flavins, 560 nm for phenothiazines and porphyrins
[2] = photosensitizer 5 nM/L, 320 nm for flavins, 560 nm for phenothiazines and porphyrins
[3] = photosensitizer 10 nM/L, 320 nm for flavins, 560 nm for phenothiazines and porphyrins
[4] = photosensitizer 20 nM/L, 320 nm for flavins, 560 nm for phenothiazines and porphyrins
[5] = photosensitizer 40 nM/L, 320 nm for flavins, 560 nm for phenothiazines and porphyrins
[6] = photosensitizer 80 nM/L, 320 nm for flavins, 560 nm for phenothiazines and porphyrins
[7] = photosensitizer 160 nM/L, 320 nm for flavins, 560 nm for phenothiazines and porphyrins
[8] = photosensitizer 320 nM/L, 320 nm for flavins, 560 nm for phenothiazines and porphyrins
[9] = photosensitizer 640 nM/L, 320 nm for flavins, 560 nm for phenothiazines and porphyrins
[10] = wavelength 180 nm, photoinactivator 40 μM/L
[11] = wavelength 220 nm, photoinactivator 40 μM/L
[12] = wavelength 260 nm, photoinactivator 40 μM/L
[13] = wavelength 320 nm, photoinactivator 40 μM/L
[14] = wavelength 360 nm, photoinactivator 40 μM/L
[15] = wavelength 400 nm, photoinactivator 40 μM/L
[16] = wavelength 440 nm, photoinactivator 40 μM/L
[17] = wavelength 480 nm, photoinactivator 40 μM/L
[18] = wavelength 520 nm, photoinactivator 40 μM/L
[19] = wavelength 560 nm, photoinactivator 40 μM/L
[20] = wavelength 600 nm, photoinactivator 40 μM/L
[21] = wavelength 640 nm, photoinactivator 40 μM/L
[22] = wavelength 680 nm, photoinactivator 40 μM/L
[23] = wavelength 720 nm, photoinactivator 40 μM/L
[24] = photosensitizer 1280 nM/L, 320 nm for flavins, 560 nm for phenothiazines and porphyrins

## C=Cc1c(C)c2cc3nc(c4c5[n-]c(cc6nc(cc1[n-]2)C(C)=C6CC)c(C)c5C(=O)[C@@H]4C(=O)OC)[C@@H](CCC(=O)OC/C=C(\C)CCC[C@H](C)CCC[C@H](C)CCCC(C)C)[C@@H]3C.[Mg+2] [Chlorophyll alpha (on TWEEN-80), Chlorophyll alpha]
[1]
  lg CFU/ml after treatment: 2 lg CFU/ml
[2]
  lg CFU/ml after treatment: 2 lg CFU/ml
[3]
  lg CFU/ml after treatment: 1 lg CFU/ml
[4]
  lg CFU/ml after treatment: 1 lg CFU/ml
[5]
  lg CFU/ml after treatment: 0 lg CFU/ml
[6]
  lg CFU/ml after treatment: 0 lg CFU/ml
[7]
  lg CFU/ml after treatment: 0 lg CFU/ml
[8]
  lg CFU/ml after treatment: 0 lg CFU/ml
[9]
  lg CFU/ml after treatment: 0 lg CFU/ml
[10]
  lg CFU/ml after treatment: 9 lg CFU/ml
[11]
  lg CFU/ml after treatment: 9 lg CFU/ml
[12]
  lg CFU/ml after treatment: 10 lg CFU/ml
[13]
  lg CFU/ml after treatment: 10 lg CFU/ml
[14]
  lg CFU/ml after treatment: 10 lg CFU/ml
[15]
  lg CFU/ml after treatment: 9 lg CFU/ml
[16]
  lg CFU/ml after treatment: 9 lg CFU/ml
[17]
  lg CFU/ml after treatment: 6 lg CFU/ml
[18]
  lg CFU/ml after treatment: 7 lg CFU/ml
[19]
  lg CFU/ml after treatment: 0 lg CFU/ml
[20]
  lg CFU/ml after treatment: 0 lg CFU/ml
[21]
  lg CFU/ml after treatment: 4 lg CFU/ml
[22]
  lg CFU/ml after treatment: 6 lg CFU/ml
[23]
  lg CFU/ml after treatment: 9 lg CFU/ml

## Cc1cc(=[N+](C)C)cc2sc3cc(N(C)C)cc(C)c3nc1-2.[Cl-] [Dimethylmethylene blue]
[1]
  lg CFU/ml after treatment: 2 lg CFU/ml
[2]
  lg CFU/ml after treatment: 1 lg CFU/ml
[3]
  lg CFU/ml after treatment: 1 lg CFU/ml
[4]
  lg CFU/ml after treatment: 1 lg CFU/ml
[5]
  lg CFU/ml after treatment: 0 lg CFU/ml
[6]
  lg CFU/ml after treatment: 0 lg CFU/ml
[7]
  lg CFU/ml after treatment: 0 lg CFU/ml
[8]
  lg CFU/ml after treatment: 0 lg CFU/ml
[9]
  lg CFU/ml after treatment: 0 lg CFU/ml
[24]
  lg CFU/ml after treatment: 1 lg CFU/ml

## C=CC1=C(C)c2cc3[n-]c(cc4[n-]c(cc5nc(cc1n2)C(C)=C5C=C)c(C)c4CCC(=O)O)c(CCC(=O)O)c3C.[Fe+2] [Heme]
[1]
  lg CFU/ml after treatment: 3 lg CFU/ml
[2]
  lg CFU/ml after treatment: 2 lg CFU/ml
[3]
  lg CFU/ml after treatment: 2 lg CFU/ml
[4]
  lg CFU/ml after treatment: 1 lg CFU/ml
[5]
  lg CFU/ml after treatment: 0 lg CFU/ml
[6]
  lg CFU/ml after treatment: 0 lg CFU/ml
[7]
  lg CFU/ml after treatment: 0 lg CFU/ml
[8]
  lg CFU/ml after treatment: 0 lg CFU/ml
[9]
  lg CFU/ml after treatment: 0 lg CFU/ml

## CN(C)c1ccc2nc3ccc(=[N+](C)C)cc-3sc2c1 [Methylene blue]
[1]
  lg CFU/ml after treatment: 6 lg CFU/ml
[2]
  lg CFU/ml after treatment: 2 lg CFU/ml
[3]
  lg CFU/ml after treatment: 1 lg CFU/ml
[4]
  lg CFU/ml after treatment: 1 lg CFU/ml
[5]
  lg CFU/ml after treatment: 0 lg CFU/ml
[6]
  lg CFU/ml after treatment: 0 lg CFU/ml
[7]
  lg CFU/ml after treatment: 0 lg CFU/ml
[8]
  lg CFU/ml after treatment: 0 lg CFU/ml
[9]
  lg CFU/ml after treatment: 0 lg CFU/ml
[24]
  lg CFU/ml after treatment: 2 lg CFU/ml
[10]
  lg CFU/ml after treatment: 10 lg CFU/ml
[11]
  lg CFU/ml after treatment: 9 lg CFU/ml
[12]
  lg CFU/ml after treatment: 8 lg CFU/ml
[13]
  lg CFU/ml after treatment: 9 lg CFU/ml
[14]
  lg CFU/ml after treatment: 9 lg CFU/ml
[15]
  lg CFU/ml after treatment: 9 lg CFU/ml
[16]
  lg CFU/ml after treatment: 9 lg CFU/ml
[17]
  lg CFU/ml after treatment: 7 lg CFU/ml
[18]
  lg CFU/ml after treatment: 4 lg CFU/ml
[19]
  lg CFU/ml after treatment: 3 lg CFU/ml
[20]
  lg CFU/ml after treatment: 3 lg CFU/ml
[21]
  lg CFU/ml after treatment: 0 lg CFU/ml
[22]
  lg CFU/ml after treatment: 0 lg CFU/ml
[23]
  lg CFU/ml after treatment: 0 lg CFU/ml

## Cc1cc2nc3c(=O)[nH]c(=O)nc-3n(C[C@H](O)[C@H](O)[C@H](O)COP(=O)(O)OP(=O)(O)OC[C@H]3O[C@@H](n4cnc5c(N)ncnc54)[C@H](O)[C@@H]3O)c2cc1C [Riboflavin dinucleotide]
[1]
  lg CFU/ml after treatment: 3 lg CFU/ml
[2]
  lg CFU/ml after treatment: 0 lg CFU/ml
[3]
  lg CFU/ml after treatment: 0 lg CFU/ml
[4]
  lg CFU/ml after treatment: 0 lg CFU/ml
[5]
  lg CFU/ml after treatment: 0 lg CFU/ml
[6]
  lg CFU/ml after treatment: 0 lg CFU/ml
[7]
  lg CFU/ml after treatment: 0 lg CFU/ml
[8]
  lg CFU/ml after treatment: 0 lg CFU/ml
[9]
  lg CFU/ml after treatment: 0 lg CFU/ml

## Cc1cc2nc3c(=O)[nH]c(=O)nc-3n(C[C@H](O)[C@H](O)[C@H](O)COP(=O)(O)O)c2cc1C [Riboflavin mononucleotide]
[1]
  lg CFU/ml after treatment: 4 lg CFU/ml
[2]
  lg CFU/ml after treatment: 1 lg CFU/ml
[3]
  lg CFU/ml after treatment: 0 lg CFU/ml
[4]
  lg CFU/ml after treatment: 0 lg CFU/ml
[5]
  lg CFU/ml after treatment: 0 lg CFU/ml
[6]
  lg CFU/ml after treatment: 0 lg CFU/ml
[7]
  lg CFU/ml after treatment: 0 lg CFU/ml
[8]
  lg CFU/ml after treatment: 0 lg CFU/ml
[9]
  lg CFU/ml after treatment: 0 lg CFU/ml

## Cc1cc2nc3ccc(N(C)C)cc3[s+]c2cc1N.[Cl-] [Toluidine Blue]
[1]
  lg CFU/ml after treatment: 6 lg CFU/ml
[2]
  lg CFU/ml after treatment: 2 lg CFU/ml
[3]
  lg CFU/ml after treatment: 1 lg CFU/ml
[4]
  lg CFU/ml after treatment: 1 lg CFU/ml
[5]
  lg CFU/ml after treatment: 0 lg CFU/ml
[6]
  lg CFU/ml after treatment: 0 lg CFU/ml
[7]
  lg CFU/ml after treatment: 0 lg CFU/ml
[8]
  lg CFU/ml after treatment: 0 lg CFU/ml
[9]
  lg CFU/ml after treatment: 0 lg CFU/ml
[24]
  lg CFU/ml after treatment: 2 lg CFU/ml

## Cyanocobalamin
[1]
  lg CFU/ml after treatment: 6 lg CFU/ml
[2]
  lg CFU/ml after treatment: 5 lg CFU/ml
[3]
  lg CFU/ml after treatment: 4 lg CFU/ml
[4]
  lg CFU/ml after treatment: 4 lg CFU/ml
[5]
  lg CFU/ml after treatment: 4 lg CFU/ml
[6]
  lg CFU/ml after treatment: 2 lg CFU/ml
[7]
  lg CFU/ml after treatment: 3 lg CFU/ml
[8]
  lg CFU/ml after treatment: 2 lg CFU/ml
[9]
  lg CFU/ml after treatment: 0 lg CFU/ml
